Measured values taken from US20250177398A1, “CARBONIC ANHYDRASE ENZYMES FOR REGULATING MAST CELL HEMATOPOIESIS AND TYPE 2 INFLAMMATION” (RUTGERS, THE STATE UNIVERSITY OF NEW JERSEY, priority 2015, published 2025).

Columns and labels:
[1] = system: bone marrow-resident progenitor cells (mast cell and basophil development); assay: Murine mast cell and basophil developmental assay: BM progenitor cells cultured with IL-3; type: cell-based, mouse; settings: BM cells + IL-3 10 ng/mL, 30 μg/mL MZ
Description: FIGS. 6A-6B. Bone marrow-resident progenitor cells were cultured in media, media treated with IL-3 (10 ng/ml), media treated with IL-3 and compound 8 (25 ng/ml) (FIG. 6A) or, media treated with IL-3 and compound 16 (25, 50, or 75 ng/ml) (FIG. 6B). On day 7 post-culture mast cells were identified by flow cytometric analysis. Results are representative of 2 independent experiments with at least 4 technical replicated per experiment. Statistical analysis was performed using a Student's t-test. (*,p<0.05) (***,p<0.001).
BM cells were isolated from the femur of WT mice and cultured in the presence of 10 ng/mL of IL-3 and vehicle (1:10 DMSO to RPMI complete media) or 30 μg/mL MZ. Fresh IL-3 with either vehicle or MZ were added daily, and mast cell and basophil populations were evaluated on day 7 post-culture.
Further, it is illustrated that genetically editing Car1 in stem cells via CRISPR/Cas9 technology decreases their capacity to develop into mature mast cells. […] However, whether inhibitors that selectively target Car1 can be used to inhibit mast cell development was unknown. […] Therefore, it was sought to be determined whether compound 8 and/or compound 16 could inhibit mast cell development from progenitor cell populations. To test this, the mast cell developmental assay was employed and bone marrow-resident progenitor cells were treated with IL-3 to promote mast cell development.

[2] = system: Trichinella spiralis; assay: Trichinella spiralis infection of mice; type: in vivo, mouse; settings: T. spiralis-infected mice
Description: Methods for maintenance, recovery, infection and isolation of Trichinella larvae were performed as previously described (Urban, et al., 2000. J Immunol 164:2046-2052). Mice were infected with 500 Trichinella muscle larvae by oral gavage and were treated with vehicle (1:5 DMSO to PBS) or 2-3 mg of MZ i.p. daily; mice were sacrificed between 10-11 days post-infection. At necropsy, single cell suspensions of mLNs and spleens were prepared as previously described (Giacomin, et al., 2012. Journal of immunology (Baltimore, Md.: 1950) 189:4371-4378) for basophil and mast cell analysis. Blood was collected and serum was isolated for analysis of Mcpt1 and IgE. Sections (1 cm) of small intestine (jejunum) were collected for real-time PCR and histological analysis. Remaining sections of small intestine were slit lengthwise, rinsed in PBS, and placed in HBSS for 4 hours at 37° C. and adult worms were quantified by microscopic analysis as previously described (Urban, et al., 2000. J Immunol 164:2046-2052). Rag1^−/− mice were injected (i.p.) with a combination of recombinant IL-3 (1 μg) and α-IL-3 antibody (0.5 μg) (BioLegend: clone MP2-8F8) in 200 μl PBS every 3 days for 7-10 days. IL-3C-treated mice were treated with MZ (2 mg) or vehicle (DMSO) every day.
RNA from sections of small intestine was isolated by homogenization in TRIzol (Invitrogen) followed by phenol-chloroform extraction and isopropanol precipitation. cDNA was generated per standard protocol with Superscript reverse transcriptase (Invitrogen) and used as input for real-time PCR. Real-time data were analyzed using the ΔΔCT method using SYBR Green chemistry (Applied Biosystems) with β-actin serving as the endogenous housekeeping gene. All reactions were run on an ABI 7500 Fast Real-Time PCR System (Applied Biosystems). Samples were normalized to naïve controls. The following QuantiTech primer assays from Qiagen were used: Mcpt1 (QT00157864), IL-4 (QT00160678), IL-9 (QT00107555), Arg1 (QT00134288), Retnla (QT00254359), Car1 (QT01058113) and Car2 (QT00494592).
Single cell suspensions were made from mesenteric, or skin draining lymph nodes. Lymph node cells were cultured in RPMI complete medium and treated with and without anti-CD3 (BD Pharmingen: clone 145-2C11) and anti-CD28 antibodies (BD Pharmingen: clone 37.51) for 72 hours. Standard sandwich ELISA (eBioscience) was performed to measure IL-4 (clones 11B11 and BVD6-24G2), IL-5 (clones TRFK5 and TRFK4) and IL-13 (clones eBio13A and eBio1316H) levels in the cell-free supernatants. Serum quantities of Mcpt1 and IgE were measured by commercial sandwich ELISA kits (BD Biosciences, eBioscience).

[3] = system: BM cells (macrophage development); assay: Murine macrophage cultures: BM cells with L-cell supernatant; type: cell-based, mouse; settings: 30% L-cell supernatant, 30 μg/mL MZ, day 5 (FIG. 1G)
Description: BM cells were isolated from the femur of WT mice and cultured in the presence of 30% L-cell supernatant and vehicle (1:10 DMSO to RPMI complete media) or 30 μg/mL MZ. Fresh macrophage medium with either vehicle or MZ was added daily and macrophage cell populations were evaluated on day 5 post-culture

CC(=O)/N=c1/sc(S(N)(=O)=O)nn1C [MZ, methazolamide]
basophil numbers ([1]; day 7): decreased | percentages of basophils ([1]; day 7 (FIG. 1F)): significantly increased | mast cell populations compared to controls ([1]; day 7 post-culture (FIG. 1E)): significantly reduced | type 2 responses (mLN cell IL-4, IL-5, IL-13; intestinal il4, il9, arg1, retnla; serum IgE) ([2]; 2-3 mg MZ i.p. daily (FIG. 3A-C)): significantly reduced | worms recovered from the intestines (worm burden) ([2]; 2-3 mg MZ i.p. daily (FIG. 3D)): significantly more | infection-induced basophilia (splenic basophils) ([2]; 2-3 mg MZ i.p. daily (FIGS. 2F-2G)): no effect | mast cell responses (mLN mast cells, serum Mcpt1, intestinal mcpt1 expression, intestinal mast cells by histology) ([2]; 2-3 mg MZ i.p. daily, day 10-11 (FIGS. 2A-2E)): significantly reduced | macrophage development [3]: no effect
